Test results reported in patent publication US20030068286A1, “Self-tanning compositions having improved coloration using 3,5-dimethoxy-4-hydroxybenzaldehyde and 1,3-dihydroxyacetone” (priority 2001, published 2003).

Columns and labels:
skin = test: Skin coloration by the Maillard reaction (self-tanning) after application to the skin; format: in vivo; details: for coloration produced in the skin: applied to the skin, melanoidins in the upper layers of skin
Description: The secondary compound, 3,5-dimethoxy-4-hydroxybenzaldehyde, is applied to the skin along with DHA.
Over time, the chemical stability of unprotected DHA is reduced, producing undesirable chemical compounds such as methylglyoxal and formic acid. […] The Maillard reaction produced by the DHA take sup to 5 hours to produce melanoidins, or colored compounds, in the upper layers of the skin. By the time an undesirable coloration develops, the wearer is helpless to remove or adjust the coloration, and must wait until their upper layers of skin are shed in order to rid themselves of the off-color.
FIG. 1 illustrates the chemical structure of 3,5-dimethoxy-4-hydroxybenzaldehyde. Structurally, this compound is a vanillin, or a hydroxymethoxybenzaldehyde.

Water solubility = test: Water solubility
Source text: The 3,5-dimethoxy-4-hydroxybenzaldehyde, as a water-insoluble aldehyde, is chemically compatible with water-soluble DHA. The compounds exist in two separate phases of a cosmetic formulation, the water phase and the oil phase.

COc1cc(C=O)cc(OC)c1O [3,5-dimethoxy-4-hydroxybenzaldehyde]
coloration produced in the skin (skin): olive-green | Maillard reaction rate relative to DHA (skin; compared with DHA, attributed to larger molecular size and longer penetration time into the skin): slightly slower | water solubility (Water solubility): water-insoluble

O=C(CO)CO [DHA, 1,3-dihydroxyacetone]
coloration produced in the skin (skin): orange-brown | coloration produced on the skin by degraded DHA (skin; degraded or "stale" DHA applied to the skin): orange coloration | time of the Maillard reaction to produce melanoidins in the upper layers of the skin (skin; in vivo): up to 5 hours

CCOc1cc(C=O)ccc1O [ethylvanillin]
coloration produced in the skin (skin): do not produce similar coloration or any Maillard reaction mechanism

COc1cccc(C=O)c1O [ortho-vanillin]
coloration produced in the skin (skin): do not produce similar coloration or any Maillard reaction mechanism
